Laboratory results from patent US20100093811A1 (priority 2007, published 2010).
Structures can show the parent of a compound that is named as a salt. Where two headings read alike, the source gives them in different places.

Columns and labels:
[1] = molecular target: wild-type HIV-1 protease (Human immunodeficiency virus type 1 group M subtype B, UniProt P04585); assay: Assay for inhibition of microbial expressed HIV protease; format: biochemical
Method in brief: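 Inhibition taken from HPLC (C18) product peak areas after phosphoric acid quench. Reaction: 440 micromolar Val-Ser-Gln-Asn-(betanapthyl)Ala-Pro-Ile-Val peptide, 5 pM E. coli-made protease, 1 h at 30° C, following 30 min room-temperature inhibitor preincubation in pH 5.5 acetate/NaCl/BSA buffer.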

[2] = test system: acute HIV infection of T-lymphoid cells; assay: Assay for inhibition of HIV replication (spread assay); format: cell-based, HIV-1; conditions: Human immunodeficiency virus 1, T-lymphoid
Experimental: • Assay for Inhibition of HIV Replication
Assays for the inhibition of acute HIV infection of T-lymphoid cells were conducted in accordance with Vacca, J. P. et al., Proc. Natl. Acad. Sci. USA 1994, 91: 4096.

[3] = wild-type HIV-1 protease expressed in E. coli, peptide substrate, pH 5.5, read-out: Enzyme Inhibition - IC50

Structure (SMILES)	IC50 [1, 3] [nM]	IC95 ([2]; read-out: Spread - IC95) [nM]	IC95 ([2]; read-out: Spread - IC95 (nM)) [nM]	IC50 [1] [nM]
COC(=O)N[C@H](C(=O)N[C@@H](C)CCC[C@@H](CO)N(C)S(=O)(=O)c1ccc(CO)cc1)C(c1ccccc1)c1ccccc1 [Example G6, N-{(1S,5S)-6-hydroxy-5-[{[4-(hydroxymethyl)phenyl]sulfonyl}(methyl)amino]-1-methylhexyl}-Nα-(methoxycarbonyl)-β-phenyl-L-phenylalaninamide]	0.376	161	–	–
COC(=O)N[C@@H](Cc1ccccc1Cl)C(=O)N[C@@H](C)CCC[C@@H](CN)N(CCC(C)C)S(=O)(=O)c1ccc(N)cc1 [Example D4, N-{(1S,5S)-6-amino-5-[[(4-aminophenyl)sulfonyl](3-methylbutyl)amino]-1-methylhexyl}-2-chloro-Nα-(methoxycarbonyl)-L-phenylalaninamide]	> 3	270	–	–
CC[C@@H](CCC[C@@H](CO)N(CC(C)C)S(=O)(=O)c1ccc(CO)cc1)NC(=O)[C@H](Cc1ccccc1Cl)NC(=O)OC [Example J21, 2-chloro-N-{(1S,55)-1-ethyl-6-hydroxy-5-[{[4-(hydroxymethyl)phenyl]sulfonyl}(isobutyl)amino]hexyl}-Nα-(methoxycarbonyl)-L-phenylalaninamide]	0.419	49	–	–
CC[C@@H](CCC[C@@H](CO)N(CCC(C)C)S(=O)(=O)c1ccc(N)cc1)NC(=O)[C@@H](NC(=O)OCc1ccncc1)C(c1ccccc1)c1ccccc1 [Example F10, N-{(1S,55)-5-[[(4-aminophenyl)sulfonyl](3-methylbutyl)amino]-1-ethyl-6-hydroxyhexyl}-β-phenyl-Nα-[(pyridin-4-ylmethoxy)carbonyl]-L-phenylalaninamide]	0.01	17	–	–
COC(=O)N[C@H](C(=O)N[C@H](CCC[C@@H](CO)N(CCC(C)C)S(=O)(=O)c1ccc(CO)cc1)C1CC1)C(c1ccc(F)cc1)c1ccc(F)cc1 [Example J16, N-{(1R,55)-1-cyclopropyl-6-hydroxy-5-[{[4-(hydroxymethyl)phenyl]sulfonyl}(3-methylbutyl)amino]hexyl}-4-fluoro-β-(4-fluorophenyl)-Nα-(methoxycarbonyl)-L-phenylalaninamide]	0.01	25	–	–
CCC(CCC[C@@H](CO)N(CCC(C)C)S(=O)(=O)c1ccc(N)cc1)NC(=O)[C@H](C(c1ccccc1)c1ccccc1)N(C)C(=O)OC (mixture of isomers) [Example F12, N{(5S)-5-[[(4-aminophenyl)sulfonyl](3-methylbutyl)amino]-1-ethyl-6-hydroxyhexyl}-Nα-(methoxycarbonyl)-Nα-methyl-β-phenyl-L-phenylalaninamide]	2.11	325	–	–
COC(=O)N[C@H](C(=O)NC1(CCCC(CO)N(CCC(C)C)S(=O)(=O)c2ccc(N)cc2)CCC1)C(c1ccccc1)c1ccccc1 (stereo partly drawn) [Example L3, N-(1-{4-[[(4-aminophenyl)sulfonyl](3-methylbutyl)amino]-5-hydroxypentyl}cyclobutyl)-Nα-(methoxycarbonyl)-β-phenyl-L-phenylalaninamide]	0.234	471	–	–
COC(=O)N[C@H](C(=O)N[C@H](CCC[C@@H](CO)N(CC(C)C)S(=O)(=O)c1ccc(CO)cc1)C1CC1)C(c1ccc(F)cc1)c1ccc(F)cc1 [Example J23, N-{(1R,5S)-1-cyclopropyl-6-hydroxy-5-[{[4-(hydroxymethyl)phenyl]sulfonyl}(isobutyl)amino]hexyl}-4-fluoro-β-(4-fluorophenyl)-Nα-(methoxycarbonyl)-L-phenylalaninamide]	0.025	60	–	–
CCCN([C@H](CO)CCC[C@H](CC)NC(=O)[C@@H](NC(=O)OC)C(c1ccccc1)c1ccccc1)S(=O)(=O)c1ccc(N)cc1 [Example F5, N-{(1S,5S)-5-[[(4-aminophenyl)sulfonyl](propyl)amino]-1-ethyl-6-hydroxyhexyl}-Nα-(methoxycarbonyl)-β-phenyl-L-phenylalaninamide]	0.163	54	–	–
COC(=O)N[C@H](C(=O)NC(C)(C)CCC[C@@H](CO)N(CC(C)C)S(=O)(=O)c1ccc(N)cc1)C(c1ccccc1)c1ccccc1 [Example L5, N-{(5S)-5-[[(4-aminophenyl)sulfonyl](isobutyl)amino]-6-hydroxy-1,1-dimethylhexyl}-Nα-(methoxycarbonyl)-β-phenyl-L-phenylalaninamide]	0.154	185	–	–
COC(=O)NC(C(=O)N[C@@H](C)CCC[C@@H](CO)N(C(C)C)S(=O)(=O)c1ccc(CO)cc1)C(c1cccc(F)c1)c1cccc(F)c1 (stereo partly drawn) [Example J46, 3-fluoro-β-(3-fluorophenyl)-N-{(1S,5S)-6-hydroxy-5-[{[4-(hydroxymethyl)phenyl]sulfonyl}(isopropyl)amino]-1-methylhexyl}-Nα-(methoxycarbonyl)phenylalaninamide]	0.01	18	–	–
CCCN([C@H](CO)CCC[C@H](C)NC(=O)[C@@H](NC(=O)OC)C(c1ccccc1)c1ccccc1)S(=O)(=O)c1ccc(N)cc1 [Example F2, N-{(1S,5S)-5-[[(4-aminophenyl)sulfonyl](propyl)amino]-6-hydroxy-1-methylhexyl}-Nα-(methoxycarbonyl)-β-phenyl-L-phenylalaninamide]	0.028	–	23	–
CC[C@@H](CCC[C@@H](CO)N(CCC(C)C)S(=O)(=O)c1ccc(N)cc1)NC(=O)[C@@H](NC(=O)OC)C(c1ccccc1)c1ccccc1 [Example D2]	0.016	–	10	–
CCCN([C@H](CO)CCC[C@H](CC)NC(=O)[C@H](Cc1ccccc1Br)NC(=O)OC)S(=O)(=O)c1ccc(N)cc1 [Example F7, N-{(1S,5S)-5-[[(4-aminophenyl)sulfonyl](propyl)amino]-1-ethyl-6-hydroxyhexyl}-2-bromo-Nα-(methoxycarbonyl)-L-phenylalaninamide]	0.862	251	–	–
CCCN([C@H](CO)CCCC(C)(C)NC(=O)[C@@H](NC(=O)OC)C(c1ccccc1)c1ccccc1)S(=O)(=O)c1ccc(N)cc1 [Example L6, N-{(5S)-5-[[(4-aminophenyl)sulfonyl](propyl)amino]-6-hydroxy-1,1-dimethylhexyl}-Nα-(methoxycarbonyl)-β-phenyl-L-phenylalaninamide]	0.095	196	–	–
CC[C@@H](CCC[C@@H](CO)N(CC(C)C)S(=O)(=O)c1ccc(CO)cc1)NC(=O)[C@@H](N)C(c1ccccc1)c1ccccc1 [Example J32, N-{(1S,5S)-1-ethyl-6-hydroxy-5-[{[4-(hydroxymethyl)phenyl]sulfonyl}(isobutyl)amino]hexyl}-β-phenyl-L-phenylalaninamide hydrochloride]	–	25	–	0.01
COC(=O)N[C@H](C(=O)NC(C)(C)CCC[C@@H](CO)N(C(C)C)S(=O)(=O)c1ccc(N)cc1)C(c1ccccc1)c1ccccc1 [Example L8]	0.267	264	–	–
COC(=O)N[C@@H](Cc1ccccc1Cl)C(=O)N[C@@H](C)CCC[C@@H](CO)N(CC(C)C)S(=O)(=O)c1ccc(N)cc1 [Example D8, N-{(1S,5S)-5-[[(4-aminophenyl)sulfonyl](isobutyl)amino]-6-hydroxy-1-methylhexyl}-2-chloro-Nα-(methoxycarbonyl)-L-phenylalaninamide]	0.327	46	–	–
COC(=O)N[C@H](C(=O)N[C@@H](C)CCC[C@@H](CO)N(CC(C)C)S(=O)(=O)c1ccc(CO)cc1)C(c1ccccc1)c1ccccc1 [Example G16, N-{(1S,5S)-6-hydroxy-5-[{[4-(hydroxymethyl)phenyl]sulfonyl}(isobutyl)amino]-1-methylhexyl}-Nα-(methoxycarbonyl)-β-phenyl-L-phenylalaninamide]	0.01	8	–	–
COC(=O)N[C@H](C(=O)N[C@H](CCC[C@@H](CO)N(CCC(C)C)S(=O)(=O)c1ccc2ncsc2c1)C1CC1)C(c1ccccc1)c1ccccc1 [Example G3, N-{(1R,5S)-5-[(1,3-benzothiazol-6-ylsulfonyl)(3-metbylbutyl)amino]-1-cyclopropyl-6-hydroxyhexyl}-Nα-(methoxycarbonyl)-β-phenyl-L-phenylalaninamide]	0.158	44	–	–
CCCN([C@H](CO)CCC[C@@H](NC(=O)[C@@H](NC(=O)OC)C(c1ccccc1)c1ccccc1)C1CC1)S(=O)(=O)c1ccc(CO)cc1 [Example I4, N-{(1R,5S)-1-cyclopropyl-6-hydroxy-5-[{[4-(hydroxymethyl)phenyl]sulfonyl}(propyl)amino]hexyl}-Nα-(methoxycarbonyl)-β-phenyl-L-phenylalaninamide]	0.058	29	–	–
COC(=O)N[C@H](C(=O)N[C@@H](C)CCC[C@@H](CO)N(CCC(C)C)S(=O)(=O)c1ccc2ncsc2c1)C(c1ccccc1)c1ccccc1 [Example D5, N-{(1S,5S)-5-[(1,3-benzothiazol-6-ylsulfonyl)(3-methylbutyl)amino]-6-hydroxy-1-methylhexyl}-Nα-(methoxycarbonyl)-β-phenyl-L-phenylalaninamide]	0.042	9	–	–
COC(=O)N[C@H](C(=O)N[C@@H](C)CCC[C@@H](CO)N(C(C)C)S(=O)(=O)c1ccc(C(C)=O)cc1)C(c1ccccc1)c1ccccc1 [Example K5, N-{(1S,5S)-5-[[(4-acetylphenyl)sulfonyl](isopropyl)amino]-6-bydroxy-1-methylhexyl}-Nα-(methoxycarbonyl)-β-phenyl-L-phenylalaninamide]	0.284	41	–	–
